The text below walks through data of publication PMC7046148 (Scientific Reports, 2020).

Assay [1] deals with XCL-1 hiPSC SALL4^G416A. Put plainly: LPM differentiation assay (FOXF1 high content imaging), XCL-1 SALL4^G416A clone. The note with it: for IC50: Homo sapiens, 48 h, read-out: IC50 (±SEM) in LPM differentiation assay.
Procedure: (§8) hiPSCs (Gibco or XCL-1 clones) were grown in mTeSR-1 on Matrigel, passaged into small clumps with Versene (4.5 min under normal culture conditions), counted as a single-cell suspension as described above, and seeded as small clumps at approximately 10,000 cells/well (30,000 cells/cm^2, ~15% confluence) in 100 µL mTeSR1 on Matrigel-coated µClear® 96-well plates (Greiner) for 1 d under normal culture conditions. On the day after seeding, the medium was replaced with 100 µL/well of mTeSR-1 (control) or APEL2 + GSKi containing either DMSO or diluted compounds (for a final DMSO concentration of 0.2%). The same conditions were replenished the following day for a total of 2 d of differentiation, and the following day (3 d after seeding), the medium was aspirated, and hiPSCs were fixed in 10% NBF for 15 min at room temperature.
(§9) Immunofluorescence staining was carried out by fixing/permeabilizing cells overnight in blocking buffer containing 3% BSA (Sigma) in DPBS-T, which contains DPBS + Ca^2+//Mg^2+ with 0.3% Triton-X100 (Sigma). Fixed and permeabilized cells were incubated in primary antibodies diluted (as noted in Table 1) in antibody buffer, consisting of 1% BSA in DPBS-T, overnight at 4 °C.
(§10) Cells were washed in blocking buffer for >6 hours at 4 °C and subsequently incubated in secondary antibody diluted in antibody buffer overnight at 4 °C. Secondary antibodies were washed out in antibody buffer for >4 h at 4 °C, and hiPSCs were counterstained with DAPI (Fisher) at 10 µg/mL in DPBS-T for 2 h. hiPSCs were washed in DPBS-T for >2 h at 4 °C, and immediately before imaging, the DPBS-T was replaced with DPBS. […] Chemical dose-response experiments and experiments examining the time-course of marker expression during LPM differentiation were imaged at 10X magnification using the Cellomics ArrayScan or CellInsight Cx7 LZR High Content Screening Platform and HCS Studio Cell Analysis Software (Thermo Fisher). An artificial threshold was uniformly applied to all images to generate the percentage of DAPI+ nuclei that stained positively for FOXF1 or NANOG. Thresholding for FOXF1 and T was performed relative to undiffer-entiated hiPSCs, and thresholding for SALL4 and OCT4 was performed relative to a non-expressing cell type (human primary endothelial cells). Settings for image acquisition and processing were uniformly applied between XCL-1 clones. […] Experiments were repeated in quadruplicate unless otherwise stated, and data are presented as mean ± SEM. Nonlinear regression analysis was performed using the 4-parameter [inhibitor]-vs-response curve fitting algorithm in Prism (GraphPad).
In addition, XCL-1 hiPSCs were engineered with CRISPR/Cas9 to express a homozygous SALL4 G416A mutation (hereafter referred to as the SALL4^G416A clone), and the homozygous SALL4 G416A mutation was confirmed by next-generation sequencing (Supplementary Fig. 2).
The next assay concerns Gibco hiPSCs. Kind of assay: LPM differentiation assay (FOXF1 high content imaging), Gibco hiPSCs. The settings on record: Homo sapiens, 48 h, read-out: IC50 (±SEM) in LPM differentiation assay.
Assay [2] relates to XCL-1 hiPSC CRBN KO/KI. Put plainly: LPM differentiation assay (FOXF1 high content imaging), XCL-1 CRBN KO/KI clone. It is filed as cell-based, human. The settings on record: for IC50: Homo sapiens, 48 h, XCL-1 CRBN KO/KI, % FOXF1+ cells after 2 d in APEL2+GSKi, read-out: IC50 (±SEM) in LPM differentiation assay.
Procedure: On the day after seeding, the medium was replaced with 100 µL/well of mTeSR-1 (control) or APEL2 + GSKi containing either DMSO or diluted compounds (for a final DMSO concentration of 0.2%). The same conditions were replenished the following day for a total of 2 d of differentiation, and the following day (3 d after seeding), the medium was aspirated, and hiPSCs were fixed in 10% NBF for 15 min at room temperature. For time-course experiments, cells were fixed at the specified intervals after the start of LPM differentiation.
as §9
Cells were washed in blocking buffer for >6 hours at 4 °C and subsequently incubated in secondary antibody diluted in antibody buffer overnight at 4 °C. Secondary antibodies were washed out in antibody buffer for >4 h at 4 °C, and hiPSCs were counterstained with DAPI (Fisher) at 10 µg/mL in DPBS-T for 2 h. hiPSCs were washed in DPBS-T for >2 h at 4 °C, and immediately before imaging, the DPBS-T was replaced with DPBS. Initial characterization of LPM differentiation by immunofluorescence was carried out using the A1R confocal microscope (Nikon) equipped with 10X objective, and automated object analysis was carried out using NIS Elements v5 software (Nikon). Chemical dose-response experiments and experiments examining the time-course of marker expression during LPM differentiation were imaged at 10X magnification using the Cellomics ArrayScan or CellInsight Cx7 LZR High Content Screening Platform and HCS Studio Cell Analysis Software (Thermo Fisher). An artificial threshold was uniformly applied to all images to generate the percentage of DAPI+ nuclei that stained positively for FOXF1 or NANOG. Thresholding for FOXF1 and T was performed relative to undiffer-entiated hiPSCs, and thresholding for SALL4 and OCT4 was performed relative to a non-expressing cell type (human primary endothelial cells). Settings for image acquisition and processing were uniformly applied between XCL-1 clones. The capacity of all XCL-1 clones and Gibco hiPSCs to undergo LPM differentiation in the high content format was assessed by FOXF1 and NANOG immunostaining. […] Experiments were repeated in quadruplicate unless otherwise stated, and data are presented as mean ± SEM. Nonlinear regression analysis was performed using the 4-parameter [inhibitor]-vs-response curve fitting algorithm in Prism (GraphPad).
Using CRISPR/Cas9-mediated gene editing, both CRBN alleles were knocked out in XCL-1 hiPSCs cells, followed by the insertion at the AAVS1 locus of a transgene encoding human CRBN with E377V and V388I mutations (clone hereafter referred to as CRBN KO/KI).
Assay [3] concerns XCL-1 hiPSC SALL4 Mock. Kind of assay: LPM differentiation assay (FOXF1 high content imaging), XCL-1 SALL4 Mock clone. The note with it: Homo sapiens, 48 h, read-out: IC50 (±SEM) in LPM differentiation assay.
Procedure: as §8, §9, §10
Assay [4] relates to XCL-1 hiPSC CRBN Mock. Kind of assay: LPM differentiation assay (FOXF1 high content imaging), XCL-1 CRBN Mock clone. It is filed as cell-based. The note with it: Homo sapiens, 48 h, % FOXF1+ cells after 2 d in APEL2+GSKi, read-out: IC50 (±SEM) in LPM differentiation assay.
Procedure: On the day after seeding, the medium was replaced with 100 µL/well of mTeSR-1 (control) or APEL2 + GSKi containing either DMSO or diluted compounds (for a final DMSO concentration of 0.2%). The same conditions were replenished the following day for a total of 2 d of differentiation, and the following day (3 d after seeding), the medium was aspirated, and hiPSCs were fixed in 10% NBF for 15 min at room temperature.
as §9, §10
The next assay has as its target T1, SALL4^G416A (Homo sapiens, UniProt Q9UJQ4, G416A).
T1 construct: parental hiPSCs were engineered to express a homozygous G416A mutation in the endogenous SALL4 locus; endogenous in cells; host or cells: XCL-1 SALL4^G416A hiPSC clone (1E6), CRISPR/Cas9 knock-in at the endogenous locus
Put plainly: SALL4 MFI by high content imaging, XCL-1 SALL4^G416A hiPSCs. It is filed as cell-based. The note with it: SALL4^G416A hiPSC clone, 8 h of treatment. From the text:
(§1) High content imaging analysis of SALL4 immunofluorescence with DAPI counterstaining in hiPSCs. […] Data represent the mean +/− SEM from 2 independent experiments.

The target of assay [5] is T2, SALL4 (Homo sapiens, UniProt Q96SW2+Q9UJQ4).
T2 construct: Unmodified Gibco hiPSCs were either differentiated in APEL2 + GSKi or maintained in mTeSR1, and SALL4 nuclear protein expression was monitored; endogenous in cells; host or cells: Gibco hiPSCs; XCL-1 SALL4 mock hiPSC clone
T2 sequence (Q9UJQ4 whole entry): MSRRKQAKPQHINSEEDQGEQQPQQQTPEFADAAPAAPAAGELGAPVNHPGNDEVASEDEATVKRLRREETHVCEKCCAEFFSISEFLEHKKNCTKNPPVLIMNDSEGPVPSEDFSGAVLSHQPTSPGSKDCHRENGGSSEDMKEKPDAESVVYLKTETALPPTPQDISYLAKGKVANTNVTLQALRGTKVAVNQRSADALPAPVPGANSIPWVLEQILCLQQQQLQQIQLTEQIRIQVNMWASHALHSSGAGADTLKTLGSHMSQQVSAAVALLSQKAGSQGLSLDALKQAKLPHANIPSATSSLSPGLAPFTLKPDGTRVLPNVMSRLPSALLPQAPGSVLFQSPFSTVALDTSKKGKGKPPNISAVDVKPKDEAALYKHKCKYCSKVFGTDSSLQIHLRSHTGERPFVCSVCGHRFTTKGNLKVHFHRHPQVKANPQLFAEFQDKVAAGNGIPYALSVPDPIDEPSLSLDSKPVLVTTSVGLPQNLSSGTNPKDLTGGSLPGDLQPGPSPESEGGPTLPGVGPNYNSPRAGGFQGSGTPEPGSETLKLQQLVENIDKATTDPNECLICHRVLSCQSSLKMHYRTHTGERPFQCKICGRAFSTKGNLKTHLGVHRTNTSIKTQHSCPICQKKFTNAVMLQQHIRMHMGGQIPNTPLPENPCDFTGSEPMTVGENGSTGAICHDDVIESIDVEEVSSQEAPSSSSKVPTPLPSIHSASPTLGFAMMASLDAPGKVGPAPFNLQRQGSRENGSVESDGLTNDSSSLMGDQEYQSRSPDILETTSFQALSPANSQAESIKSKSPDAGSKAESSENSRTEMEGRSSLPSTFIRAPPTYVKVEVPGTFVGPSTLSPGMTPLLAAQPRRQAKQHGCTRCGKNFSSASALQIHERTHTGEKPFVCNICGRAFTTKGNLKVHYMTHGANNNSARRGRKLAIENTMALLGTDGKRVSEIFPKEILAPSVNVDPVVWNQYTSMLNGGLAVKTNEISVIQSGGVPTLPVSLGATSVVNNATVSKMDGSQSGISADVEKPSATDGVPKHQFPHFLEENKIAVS
T2 sequence (Q96SW2 whole entry): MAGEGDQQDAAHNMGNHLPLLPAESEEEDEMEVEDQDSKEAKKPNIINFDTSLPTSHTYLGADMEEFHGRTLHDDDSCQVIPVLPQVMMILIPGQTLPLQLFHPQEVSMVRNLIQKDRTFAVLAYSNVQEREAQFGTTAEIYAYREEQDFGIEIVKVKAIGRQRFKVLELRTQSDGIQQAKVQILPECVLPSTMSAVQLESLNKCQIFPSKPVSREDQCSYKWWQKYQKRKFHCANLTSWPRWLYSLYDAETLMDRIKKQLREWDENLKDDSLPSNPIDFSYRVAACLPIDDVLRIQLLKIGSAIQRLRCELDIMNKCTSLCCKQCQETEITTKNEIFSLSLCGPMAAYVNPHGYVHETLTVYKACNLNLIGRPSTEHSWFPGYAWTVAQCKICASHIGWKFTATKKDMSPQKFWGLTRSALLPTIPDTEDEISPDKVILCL
T2 sequence (Q16531 whole entry partner): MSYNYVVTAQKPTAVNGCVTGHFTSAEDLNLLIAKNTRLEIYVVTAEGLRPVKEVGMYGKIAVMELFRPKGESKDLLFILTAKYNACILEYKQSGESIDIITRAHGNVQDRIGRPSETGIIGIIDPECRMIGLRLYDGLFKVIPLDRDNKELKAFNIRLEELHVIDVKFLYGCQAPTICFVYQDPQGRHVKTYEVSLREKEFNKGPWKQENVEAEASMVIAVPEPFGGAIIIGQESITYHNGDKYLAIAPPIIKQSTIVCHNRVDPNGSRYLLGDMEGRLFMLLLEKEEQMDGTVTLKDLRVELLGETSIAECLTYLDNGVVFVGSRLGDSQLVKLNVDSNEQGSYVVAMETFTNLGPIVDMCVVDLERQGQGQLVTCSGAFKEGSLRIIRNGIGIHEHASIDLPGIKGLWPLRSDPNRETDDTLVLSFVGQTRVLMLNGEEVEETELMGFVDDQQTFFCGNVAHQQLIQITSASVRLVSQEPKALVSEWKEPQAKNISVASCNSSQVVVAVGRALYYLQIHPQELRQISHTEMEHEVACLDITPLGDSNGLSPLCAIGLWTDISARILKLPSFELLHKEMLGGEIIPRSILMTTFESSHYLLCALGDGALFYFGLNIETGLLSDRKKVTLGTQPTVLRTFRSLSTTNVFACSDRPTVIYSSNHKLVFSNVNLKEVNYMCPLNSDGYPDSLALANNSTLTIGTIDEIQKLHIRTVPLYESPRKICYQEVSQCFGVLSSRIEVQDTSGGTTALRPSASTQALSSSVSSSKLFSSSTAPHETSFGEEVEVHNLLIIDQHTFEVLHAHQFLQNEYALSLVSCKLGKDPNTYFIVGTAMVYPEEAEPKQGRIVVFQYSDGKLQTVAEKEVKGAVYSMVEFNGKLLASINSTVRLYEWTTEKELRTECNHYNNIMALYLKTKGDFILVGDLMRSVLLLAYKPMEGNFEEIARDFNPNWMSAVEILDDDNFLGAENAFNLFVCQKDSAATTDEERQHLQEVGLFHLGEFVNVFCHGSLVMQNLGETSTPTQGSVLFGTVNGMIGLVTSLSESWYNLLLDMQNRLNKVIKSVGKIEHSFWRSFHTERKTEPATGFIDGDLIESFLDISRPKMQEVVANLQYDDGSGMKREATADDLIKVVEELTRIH
Put plainly: SALL4 MFI by high content imaging, XCL-1 SALL4 mock hiPSCs. It is filed as cell-based. The note with it: SALL4 mock control hiPSCs, 8 h of treatment.
Text: as §1

Another assay concerns the target T3, human SALL4 (Homo sapiens, UniProt Q9UJQ4).
T3 construct: expressed in transfected cells; host or cells: Lenti-x 293 CRBN CRISPR KO (CRBN-/-) cells stably expressing human SALL4, transiently transfected with FLAG-CRBN variants
Kind of assay: Immunoblot of SALL4 degradation in Lenti-x 293 CRBN-/- cells expressing human CRBN variants. It is filed as cell-based. In general terms: Immunoblotting shows a protein as a band on a membrane.

Assay [6] deals with T2, SALL4. Put plainly: SALL4 nuclear protein expression (MFI) by high content imaging, Gibco hiPSCs. It is filed as cell-based.
Text: as §1

Assay [7] concerns XCL-1 hiPSC SALL4 Mock. Kind of assay: cells. It is filed as cell-based. The note with it: Homo sapiens, 72 h; XCL-1 SALL4 Mock; 3 d differentiation; read-out: IC50 (±SEM) in SOX17 differentiation assay. The protocol: (§2) The assay was carried out as previously described with continuous dosing of chemical for 3 total days of differentiation. SOX17 staining and DAPI counter-staining were carried out as described, and assays were imaged via high content imaging. […]
(§3) Supplementary Figure 7. Dose-response characterization of the influence […]
(§4) of XCL-1 clones. High content imaging analysis of XCL-1 hiPSC clones that were differentiated for 3 days in the presence of compound and subsequently stained for SOX17 and counter-stained with DAPI. Untreated DMSO control is omitted. Data represent the mean +/- SEM %SOX17 cells
(§5) (relative to control) from 4 independent experiments. Nonlinear regression […]
(§6) variable slope plotting tool in GraphPad Prism. A-C: Dose-response […]
(§7) in cereblon mock (hollow circles) or CRBN KO/KI (red filled circles) clones. D- […]

Assay [8] deals with XCL-1 hiPSC CRBN KO/KI. Kind of assay: cells. It is filed as cell-based. The settings on record: Homo sapiens, 72 h; XCL-1 CRBN KO/KI; 3 d differentiation; read-out: IC50 (±SEM) in SOX17 differentiation assay. The protocol: as §2, §3, §4, §5, §6, §7
Assay [9] deals with XCL-1 hiPSC SALL4^G416A. Kind of assay: cells. It is filed as cell-based. The note with it: Homo sapiens, 72 h; XCL-1 SALL4^G416A; 3 d differentiation; read-out: IC50 (±SEM) in SOX17 differentiation assay. The protocol: as §2, §3, §4, §5, §6, §7
The subject of assay [10] is XCL-1 hiPSC CRBN Mock. Put plainly: cells. It is filed as cell-based. The note with it: Homo sapiens, 72 h; XCL-1 CRBN Mock; 3 d differentiation; read-out: IC50 (±SEM) in SOX17 differentiation assay. The protocol:
as §2, §3, §4, §5, §6, §7

A value given as a limit tells only on which side of the number the result lay.

T3 sequence (Q96SW2 whole entry partner): as the sequence (Q96SW2 whole entry) above
T3 sequence (Q16531 whole entry partner): as the sequence (Q16531 whole entry partner) above
T3 sequence (Q9UJQ4 whole entry): as the sequence (Q9UJQ4 whole entry) above
T1 sequence (Q96SW2 whole entry partner): as the sequence (Q96SW2 whole entry) above
T1 sequence (Q16531 whole entry partner): as the sequence (Q16531 whole entry partner) above
T1 sequence (Q9UJQ4 whole entry G416A): as the sequence (Q9UJQ4 whole entry) above, with G416A counted along it
Text for human SALL4: SALL4 were transiently transfected with vectors expressing GFP or human CRBN variants and treated with
CRBN-/- cells transfected with empty vector were used as a negative control. The cells were then lysed and
characterized by immunoblotting analysis for SALL4, ZFP91, GFP, CRBN, and β-actin.
CRBN CRISPR KO (CRBN -/-) cells were maintained in Dulbecco’s Modified Eagle’s medium (DMEM;
Invitrogen) supplemented with 10% fetal bovine serum (FBS; Invitrogen). All cell lines were confirmed
mycoplasma-negative using the MycoAlert Mycoplasma Detection Kit (Lonza).
CRBN-/- cells stably expressing human SALL4 was transiently transfected with 4 µg of pcDNA3-GFP, pcDNA3-
FLAG-CRBN WT (isoform 1),pcDNA3-FLAG-CRBN E377V (isoform 1) or pcDNA3-FLAG-CRBN V388I (isoform
Cells were then harvested and lysed, and
whole cell extract was subjected to immunoblotting analysis. Cells were washed with ice-cold 1X PBS and
lysed in 50mM Tris-HCl [pH 7.6], 150 mM NaCl, 1% Triton X-100, and 1x Complete ULTRA protease inhibitor
cocktail and PhosSTOP phosphatase inhibitor cocktail. Whole cell extracts were collected after
centrifugation at top speed for 10 minutes, resolved by sodium dodecyl sulfate polyacrylamide gel
electrophoresis, transferred onto a nitrocellulose membrane using the Turboblot system (Bio-Rad), and
probed with the indicated primary antibodies. Bound antibodies were detected with IRDye®-680 or -800 […]

The IC50 is the concentration that inhibits the measured activity by half. As to `NC(=O)c1ccc(-c2nc(-c3ccc4c(c3)OCO4)c(-c3ccccn3)[nH]2)cc1` [SB431542], the IC50 with XCL-1 hiPSC SALL4^G416A [1] is 510 ± 100 nM; with Gibco hiPSCs it was 2760 ± 5580 nM; in the assay with XCL-1 hiPSC CRBN KO/KI [2] it was 790 ± 400 nM; in the assay on XCL-1 hiPSC SALL4 Mock [3], 630 ± 170 nM; in the assay on XCL-1 hiPSC CRBN Mock [4], 650 ± 180 nM.
Regarding `Nc1cccc2c1C(=O)N(C1CCC(=O)NC1=O)C2=O` (stereo not shown) [Pomalidomide, pomalidomide], the “effect on SALL4 MFI” value on SALL4^G416A is reported as “unchanged”; at SALL4 [5], “potently reduced SALL4 MFI”. Moreover, the IC50 was greater than 50000 nM with XCL-1 hiPSC SALL4^G416A [1]; 10 ± 10 nM in the assay on Gibco hiPSCs; greater than 50000 nM in the assay on XCL-1 hiPSC CRBN KO/KI [2]; 90 ± 90 nM with XCL-1 hiPSC SALL4 Mock [3]; 20 ± 10 nM in the assay with XCL-1 hiPSC CRBN Mock [4]; 10 ± 10 nM in the assay with XCL-1 hiPSC SALL4 Mock [7]. Besides, the IC50 in the assay on XCL-1 hiPSC CRBN KO/KI [8] was greater than 50000 nM; with XCL-1 hiPSC SALL4^G416A [9] it was greater than 50000 nM; in the assay on XCL-1 hiPSC CRBN Mock [10], 20 ± 20 nM. Besides, in the assay with XCL-1 hiPSC SALL4^G416A [1] (SALL4^G416A clone), the “inhibition of LPM differentiation at the two highest concentrations tested” value was “modest inhibition of LPM differentiation”. Besides, the “inhibition of LPM differentiation at the highest concentration tested” value in the assay with XCL-1 hiPSC CRBN KO/KI [2] (50 µM, CRBN KO/KI clone) was “inhibited LPM differentiation albeit not to the same magnitude as control hiPSCs”. For the same compound, the “SALL4 degradation in human cells expressing CRBN with the V388I mutation” value on human SALL4 was “failed to induce SALL4 degradation”. Besides, the “time-course of SALL4 MFI” value on SALL4 [6] (20 µM, Gibco hiPSCs in mTeSR1 or APEL2+GSKi, 2, 8 and 24 h after dosing) was “rapid decline in SALL4 MFI 2 h after dosing”. For the same compound, the “magnitude of the decrease in SALL4 MFI” value on SALL4 [6] (Gibco hiPSCs, 8 h of treatment, dose-response) was ~ 55%.
On to `Nc1cccc2c1CN(C1CCC(=O)NC1=O)C2=O` (stereo not shown) [Lenalidomide, lenalidomide], for which the IC50 in the assay on Gibco hiPSCs is 160 ± 80 nM.
